What was measured:
[1] = tested on: eleven NK/T lymphoma cell lines (KAI-3, NK-S1, NK-92, KHYG-1, NK-YS, MEC-04, SNK-1, SNK-6, YT, HANK-1, or SNT-8); assay: Cell viability (CellTiter-Glo 2.0), eleven NK/T lymphoma cell lines; format: cell-based; conditions: Fig. 9
Description: The effect of BCV on cell viability was examined in eleven NK/T lymphoma cell lines (KAI-3, NK-S1, NK-92, KHYG-1, NK-YS, MEC-04, SNK-1, SNK-6, YT, HANK-1, or SNT-8). Cell viability was quantified using Promega CellTiter-Glo (registered trademark) 2.0 Cell Viability Assay (Promega Corporation, Madison, Wisconsin, USA) according to the manufacturer's protocol. In brief, cells were plated in a 96-well plate at a concentration of 2 × 10^3 cells per 100 µL of culture medium, and a drug was added at each concentration. After each time point, Promega CellTiter-Glo (registered trademark) 2.0 Cell Viability Assay reagent was added to the wells and incubated at room temperature for 10 minutes. Subsequently, […] was measured using a Tecan M200 Infinite 96-well plate reader and iControl software 1.6 (Tecan, Männedorf, Switzerland). Cell viability was calculated as a percentage of the control absorbance. A dose-response curve was generated by plotting the percentage of viable cells against the drug concentration to analyze the growth-inhibitory effect. The IC50 values were estimated using GraphPad Prism version 8.0.2 (GraphPad Software). All reactions were performed in triplicate (n = 3).

[2] = tested on: calreticulin; assay: Immunogenic cell death: calreticulin staining by flow cytometry; format: cell-based; conditions: NK-S1 and KAI-3; BCV 0.1 ug/mL or 1 ug/mL for 72 hours; Fig. 6
Description: (§1) NK-S1 and KAI-3 cell lines were treated with BCV (0.1 ug/mL or 1 ug/mL) or DMSO alone for 72 hours. For calreticulin staining, cells were incubated with a calreticulin antibody (1:100, room temperature, 30 minutes) (#ab92516, Abcam Limited.) and washed prior to analysis. Then, the cells were resuspended in PBS and analyzed using a cell analyzer (BD LSR Fortessa, BD Biosciences, San Jose, CA, USA). Data were analyzed using FlowJo version 10.8.0 (BD Biosciences, San Jose, California). The extracellular level of HMGB1 in the case of BCV treatment was measured using Lumit HMGB1 immunoassay (Promega Corporation, Madison, Wisconsin, USA).

[3] = tested on: STING pathway; assay: Whole transcriptome sequencing / GSEA / quantitative PCR, STING pathway genes; format: cell-based; conditions: NK-S1 and KAI-3; BCV 0.1 µg/mL and 1 µg/mL; Figs. 5B and 5C
Description: (§2) BCV-treated NK-S1 and KAI-3 cell lines were subjected to sequencing of the entire transcription product. Gene set enrichment analysis (GSEA) was performed using the Molecular Signatures Database (MSigDB) Hallmark gene set. […] Quantitative PCR was performed using Maxima SYBR Green/ROX qPCR Master Mix (Thermo Scientific, USA). The ΔCt value of a gene's mRNA expression was calculated as the difference between the Ct value of the gene and that of an internal control, GAPDH. The ΔΔCt was calculated by subtracting the ΔCt value of the treatment group from the ΔCt value of an untreated control group. The fold change in expression was calculated using the formula 2^ΔΔCt.

[4] = tested on: NK-S1 cell line; assay: Combined treatment cell viability (CellTiter-Glo 2.0), Chou-Talalay combination index; format: cell-based; conditions: for type of combined effect based on the combination index value: CI less than 1 indicates synergism; for effect of combined treatment compared to each drug alone: Fig. 7
Description: NK-S1 cell line was treated with a selected dose of etoposide, gemcitabine, or gamma irradiation, with or without BCV (0.1 µg/mL). Cell viability was quantified using Promega CellTiter-Glo (registered trademark) 2.0 Cell Viability Assay (Promega Corporation, Madison, Wisconsin, USA) according to the manufacturer's protocol. A combination index (CI) was calculated using Chou-Talalay median-effect analysis to determine if the effect was synergism, an additive effect, or antagonism. Specifically, a CI value less than 1 indicates synergism, and a CI value more than 1 indicates antagonism. A CI value close to 1 (i.e., between 0.9 and 1.1) was considered indicative of an additive effect.

[5] = tested on: HMGB1; assay: Immunogenic cell death: extracellular HMGB1 (Lumit HMGB1 immunoassay); format: cell-based; conditions: NK-S1 and KAI-3; BCV treatment; Fig. 6
Description: as §1

[6] = tested on: MYC-positive lymphoma cells (Raji, Daudi, VAL, BJAB, DB); assay: Cell viability (CellTiter-Glo 2.0), MYC-positive B-cell lymphoma cell lines; format: cell-based; conditions: 96 hours, Fig. 8
Description: Different B-cell lymphoma cell lines were individually treated with each concentration of BCV for 96 hours. Cell viability was quantified using Promega CellTiter-Glo (registered trademark) 2.0 Cell Viability Assay (Promega Corporation, Madison, Wisconsin, USA) according to the manufacturer's protocol. Information on the presence or absence of EBV and the molecular information were obtained by referring to a public database. The cell lines shown in Fig. 8 have been reported to be classified into groups as follows: Raji and Daudi as Burkitt's lymphoma (BL) cell lines; VAL and DB as diffuse large B-cell lymphoma (DLBCL) cell lines; and BJAB as a BL cell line or a DLBCL cell line. All of these are B lymphomas in which MYC is either translocated or amplified. Raji, Daudi, and VAL are EBV-positive cell lines, while BJAB and DB are EBV-negative cell lines. VAL is triple-hit lymphoma and DB is double-hit lymphoma.

[7] = tested on: NK/T lymphoma cells (KAI-3, NK-S1, KHYG-1); assay: Cell viability (CellTiter-Glo 2.0), NK/T lymphoma cell proliferation; format: cell-based; conditions: Fig. 1
Description: (§3) Cell viability was determined using Promega CellTiter-Glo (registered trademark) 2.0 Cell Viability Assay (Promega Corporation, Madison, Wisconsin, USA) according to the manufacturer's protocol. Specifically, lymphoma cells were plated in a 96-well plate at a concentration of 2 × 10^3 cells per 100 µL of culture medium, and a drug (BCV) was added to each well at each concentration. At each time point, Promega CellTiter-Glo (registered trademark) 2.0 Cell Viability Assay reagent was added to the wells and incubated at room temperature for 10 minutes. Subsequently, […] was measured using a Tecan M200 Infinite 96-well plate reader and IControl software 1.6 (Tecan, Männedorf, Switzerland). Cell viability was evaluated as a percentage of a control absorbance. A dose-response curve was generated by plotting the percentage of viable cells against the drug concentration to analyze the growth-inhibitory effect. The IC50 values were estimated using GraphPad Prism version 8.0.2 (GraphPad Software). All reactions were performed in triplicate (n = 3). Furthermore, EBV positivity or EBV negativity of the cells was detected based on the presence or absence of an EBV-derived transcript (e.g., EBER, EBNA1, and the like).

[8] = tested on: EBV-positive NK/T lymphoma cells (NK-S1); assay: Cell viability (CellTiter-Glo 2.0), comparison with antiviral agents; format: cell-based; conditions: compared to acyclovir, ganciclovir, adefovir, foscarnet, and penciclovir, Fig. 2
Description: as §3
The experimental procedure was the same as in Example 1, except that BCV, acyclovir, ganciclovir, adefovir, foscarnet, and penciclovir were used as the drugs.

[9] = tested on: Myc; assay: Whole transcriptome sequencing / GSEA / quantitative PCR, Myc expression; format: cell-based; conditions: NK-S1 and KAI-3
Description: as §2

[10] = tested on: LMP1; assay: Western blot of LMP1 expression in lymphoma cells; format: cell-based; conditions: NK-S1 and KAI-3; 0.1 and 1 µg/mL BCV for 72 hours; Fig. 4
Description: (§4) NK-S1 and KAI-3 cell lines were treated with 0.1 and 1 µg/mL BCV for 72 hours. Subsequently, whole-cell lysates were separated by SDS-PAGE using 4 to 15% Mini-PROTEAN™ TGX Stain-Free™ Protein Gel (Bio-Rad Laboratories, Inc., Hercules, CA, USA) and then transferred to a 0.2 µm PVDF membrane (Bio-Rad Laboratories, Inc., Hercules, California, USA). The membrane was blocked and then gently shaken overnight at 4°C in a solution containing 5% skimmed milk powder (Bio-Rad Laboratories, Inc., Hercules, CA, USA) or 5% bovine serum albumin (Sigma-Aldrich, Darmstadt, Germany), TBST solution (50 mM Tris/HCl, pH 7.4, 150 mM NaCl, 0.1% Tween-20), and primary antibodies (anti-EBNA1 antibody (Santa Cruz Biotechnology, Inc.) and anti-LMP1 antibody (Dako)). Exposure to an appropriate HRP-conjugated anti-mouse antibody (Cytiva, Washington D.C., USA) was performed for 1 hour. Finally, chemiluminescent detection was performed using SuperSignal Substrate Western Blotting Kit (Thermo Fisher Scientific Inc., Massachusetts, USA). Imaging was performed using ChemiDoc™ XRS+ (a system with Image Lab™ software, Bio-Rad Laboratories, Inc., Hercules, California, USA).

[11] = tested on: EBV-positive NK/T lymphoma; assay: In vivo drug treatment of mice inoculated with NK-S1 cells; parameters: species or system NSG mice; conditions: 40 mg/kg intraperitoneally twice weekly
Description: In in vivo drug treatment with BCV, 6-week-old female NSG mice were inoculated with 0.5 × 10^6 cells (NK-S1), and BCV or a control solvent was administered intraperitoneally at a dosage of 40 mg/kg twice weekly. Tumor measurements were recorded twice weekly until the tumor size in the control group reached approximately 2000 mm^3. Mice were euthanized according to the IACUC guideline. The tumor sizes of the experimental group and the control group (n = 8 per group) were averaged at each time point (Days 1, 5, 8, 12, and 15) and compared statistically. Throughout the experiment, signs of toxicity including diarrhea and weight loss were monitored.

[12] = tested on: EBNA1; assay: Western blot of EBNA1 expression in lymphoma cells; format: cell-based; conditions: NK-S1 and KAI-3; 0.1 and 1 µg/mL BCV for 72 hours; Fig. 4
Description: as §4

[13] = BCV 0.1 µg/mL combined with etoposide
[14] = BCV 0.1 µg/mL combined with gemcitabine

SMILES: CCCCCCCCCCCCCCCCOCCCOP(=O)(O)CO[C@H](CO)Cn1ccc(N)nc1=O [BCV, [(2S)-1-(4-amino-2-oxopyrimidin-1-yl)-3-hydroxypropan-2-yl]oxymethyl-(3-hexadecoxypropoxy)phosphinic acid]
- IC50 values ([1]; four cell lines (KAI-3, NK-S1, NK-92, KHYG-1) versus the other seven cell lines): lower IC50 values compared to other cell lines
- sensitivity to BCV ([1]; four cell lines (KAI-3, NK-S1, NK-92, KHYG-1)): high sensitivity to BCV
- number of calreticulin-positive cells [2]: clearly increased
- expression of a gene group in the STING pathway [3]: increased
- type of combined effect based on the combination index value [4, 13]: synergistic effect
- effect of combined treatment compared to each drug alone [4, 13]: significant enhancement of the effect
- type of combined effect based on the combination index value [4, 14]: synergistic effect
- effect of combined treatment compared to each drug alone [4, 14]: significant enhancement of the effect
- release of HMGB1 [5]: clearly increased
- growth-suppressive effect on EBV-positive cells and EBV-negative cells ([6]; EBV-positive Raji, EBV-negative BJAB): strong growth-suppressive effect on both EBV-positive cells and EBV-negative cells
- cell growth-suppressive action on MYC-positive lymphoma cells ([6]; Raji, BJAB): distinct cell growth-suppressive action
- IC50 value of cell growth-suppressive action ([7]; EBV-positive (KAI-3 and NK-S1) versus EBV-negative (KHYG-1) NK/T lymphoma cells): significantly lower for EBV-positive NK/T lymphoma cells (KAI-3 and NK-S1) compared to EBV-negative NK/T lymphoma cells (KHYG-1)
- proliferation of NK/T lymphoma cells ([7]; KAI-3, NK-S1, KHYG-1): suppressed the proliferation of NK/T lymphoma cells
- cell growth-suppressive effect [8]: significantly better cell growth-suppressive effect
- Myc expression ([9]; BCV 0.1 µg/mL and 1 µg/mL, Fig. 5A): significantly reduced Myc expression
- expression of a gene group controlled by MYC ([9]; BCV-treated, Fig. 5): significantly reduced the expression of a gene group controlled by MYC
- expression level of LMP1 [10]: reduced the expression level
- enlargement of EBV-positive NK/T lymphoma (tumor size) ([11]; NK-S1 in NSG mice, Days 1-15, Figs. 3A to 3D): significantly suppressed the enlargement of EBV-positive NK/T lymphoma
- animal's health status ([11]; NSG mice): good
- signs of toxicity: diarrhea ([11]; NSG mice): no diarrhea observed
- expression level of EBNA1 [12]: reduced the expression level
